Experimental data reported in ChEMBL document CHEMBL1201862, “PubChem BioAssay data set” (2004).
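These data come from cells grown in 96-well plates and exposed to compound for 48 hours at five concentrations. Abbreviation: GI50, concentration required for 50% inhibition of growth.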 Activity calls are given as the source filed them. Rule as the data show it: active = GI50 up to about 1.1 µM and inactive = higher. Where a SMILES comes first, the peptide text is derived from it. Square brackets hold non-standard residues; d marks the D form. Peptide text beside a SMILES is read from it. [ ]: non-standard residue; d: D form. The star is where a group is joined. ξ: configuration not given here. X4 = COc1ccc(C(N*)c2ccc(OC)cc2)cc1; NMeF = CN[C@@H](Cc1ccccc1)C(=O)O; NMeD = CN[C@@H](CC(=O)O)C(=O)O; NMeV = CN[C@H](C(=O)O)C(C)C; ξNMeV = CNC(C(=O)O)C(C)C; Ac5c = NC1(C(=O)O)CCCC1; Boc = CC(C)(C)OC(=O)*; ξNMeA = CNC(C)C(=O)O; ξV = CC(C)C(N)C(=O)O

How the values were obtained:
Assay in all cases: inhibition of tumour cell growth, NCI panel, 48 h
[1] = system: Hs-578T
[2] = system: DMS-114
[3] = system: HOP-18
[4] = system: KM-20L2
[5] = system: LXFL 529
[6] = system: M19-MEL
[7] = system: SNB-78
[8] = system: BT-549

SMILES | GI50 [1] | GI50 [8] | further results
CC(C)(C)COC1C2(OCCO2)C2CCC1(C)C2(C)C (stereo not given) | 18.8 µM (inactive) |  | 
CCCCCCCCCCCC1CC(=O)NCCCN(C)CCCCN(C)CCCN1C (stereo not given) [BUDMUNCHIAMINE A] |  |  | GI50 [2]: 1.78 µM (inactive); GI50 [3]: 1.77 µM (inactive); GI50 [4]: 1.65 µM (inactive); GI50 [5]: 1.72 µM (inactive); GI50 [6]: 1.76 µM (inactive); GI50 [7]: 1.79 µM (inactive)
CCOP(=O)(OCC)C(C)(CC)N/C(=N\C1=NC(C(F)(F)F)(C(F)(F)F)N=C(C(F)(F)F)O1)NC(NC(C)=O)(C(F)(F)F)C(F)(F)F (stereo not given) | 31.8 µM (inactive) |  | 
C=CCSc1nc2ccccc2c(=O)n1Cc1ccco1 | > 100 µM (inactive) | > 100 µM (inactive) | 
O=C1C(c2ccccc2)=C(c2ccccc2)C1(Cl)Cl | 3.56 µM (inactive) | 2.47 µM (inactive) | 
Cc1cc(C)nc(NS(=O)(=O)c2ccc(Nc3c4ccc(Cl)cc4nc4c(C(=O)Nc5ccc(S(=O)(=O)N=C(N)N)cc5)cccc34)cc2)n1 |  |  | GI50 [2]: 41.7 µM (inactive); GI50 [4]: > 100 µM (inactive); GI50 [5]: 66.7 µM (inactive); GI50 [6]: > 100 µM (inactive); GI50 [7]: 39.9 µM (inactive)
CNC(=O)c1nnn(Cc2ccccc2)c1S |  | > 100 µM (inactive) | 
O=C(NCCN(CCNC(=O)c1cccc(O)c1O)CCNC(=O)c1cccc(O)c1O)c1cccc(O)c1O [TRENCAM] | 29.7 µM (inactive) | 23.2 µM (inactive) | 
COC(=O)C(=O)C(C(=O)C(=O)Nc1ccc(C)cc1)c1nc2ccc(C(=O)c3ccccc3)cc2nc1O (stereo not given) | 57.3 µM (inactive) | > 100 µM (inactive) | 
COc1ccc2ccccc2c1C1NC(=O)c2ccccc2N1 (stereo not given) | 1.7 µM (inactive) | > 100 µM (inactive) | 
O=C1NC(Cc2ccc(O)cc2)C(=O)NC1Cc1ccc(O)cc1 (stereo not given) | > 100 µM (inactive) |  | 
Cc1cc(C)c2c(=O)n(CN3CC4Nc5ccccc5C4C3)sc2n1 (stereo not given) | 16.6 µM (inactive) | 31.2 µM (inactive) | 
NCC(=O)NC1(C(=O)O)CCCC1 (H-Gly-[Ac5c]-OH) | > 100 µM (inactive) | > 100 µM (inactive) | 
COC(=O)CCCN(C)c1nc(N)n[nH]1 |  |  | GI50 [2]: > 100 µM (inactive); GI50 [4]: > 100 µM (inactive); GI50 [5]: > 100 µM (inactive); GI50 [6]: > 100 µM (inactive); GI50 [7]: > 100 µM (inactive)
[N-]=[N+]=N[C@H]1C[C@@H](CO)O[C@H]1n1cnc2c(N)ncnc21 |  |  | GI50 [2]: > 100 µM (inactive); GI50 [3]: 0.202 µM (active); GI50 [4]: > 100 µM (inactive); GI50 [5]: > 100 µM (inactive); GI50 [6]: > 100 µM (inactive); GI50 [7]: > 100 µM (inactive)
C(=N\c1ccc(-c2nc3ccccc3[nH]2)cc1)/c1ccc[nH]1 | 4.3 µM (inactive) | > 100 µM (inactive) | 

SMILES | GI50 [1] | GI50 [8] | further results
COc1cc2c(cc1OC)NC(=O)NC(Cc1ccc3c(c1)OCO3)CC2 (stereo not given) |  |  | GI50 [2]: > 100 µM (inactive); GI50 [4]: > 100 µM (inactive); GI50 [5]: > 100 µM (inactive); GI50 [6]: > 100 µM (inactive); GI50 [7]: > 100 µM (inactive)
O=C(Cn1c(=O)oc2ccc(C(=O)c3ccc(F)cc3)cc21)c1ccc([N+](=O)[O-])cc1 | 20.4 µM (inactive) |  | 
NC(=O)C(c1ccccc1)N1OC2C(=O)N(c3cccc4ccccc34)C(=O)C2C1c1c2ccccc2c(Cl)c2ccccc12 (stereo not given) | 18.6 µM (inactive) | 9.42 µM (inactive) | 
O=C1Oc2cc(O)cc(/C=C/c3ccc(O)cc3)c2[C@@]12c1c(O)cc(O)cc1OC2c1cccc(O)c1 (stereo not given in full) | 20.5 µM (inactive) | 49.8 µM (inactive) | 
Cc1cn(CC2=NCC(C)(C)N2)c(=O)[nH]c1=O | > 100 µM (inactive) | > 100 µM (inactive) | 
C(=N\c1ccc(-c2nc3ccccc3[nH]2)cc1)/c1cccs1 | > 100 µM (inactive) | 27.4 µM (inactive) | 
O=C1NC(=O)C(c2c[nH]c3cc(Br)ccc23)=C1c1cn(C(c2ccccc2)(c2ccccc2)c2ccccc2)cn1 | 22.4 µM (inactive) | 16 µM (inactive) | 
CC(N)(Cc1c[nH]c2ccccc12)C(=O)O (stereo not given) | > 100 µM (inactive) | > 100 µM (inactive) | 
COc1ccc(C(NC(=O)C[C@@H](C(=O)N(C)C(C)C(=O)O)N(C)C(=O)[C@@H]2CCCN2C(=O)[C@H](C(C)C)N(C)C(=O)C(C(C)C)N(C)C(=O)[C@H](Cc2ccccc2)N(C)C(=O)C(NC(=O)OC(C)(C)C)C(C)C)c2ccc(OC)cc2)cc1 (stereo not given in full) (Boc-[ξV][NMeF][ξNMeV][NMeV]P[NMeD](X4)[ξNMeA]-OH) | 2.56 µM (inactive) | 6.73 µM (inactive) | GI50 [2]: 16.5 µM (inactive); GI50 [4]: 19.9 µM (inactive); GI50 [5]: 14.7 µM (inactive); GI50 [6]: 16.9 µM (inactive); GI50 [7]: 15.8 µM (inactive)
CC(C)=CCc1cc2c(cc1O)OC[C@H]1c3cc4c(cc3O[C@@H]21)OCO4 | 18.2 µM (inactive) | 23.4 µM (inactive) | 
COc1cc(/C=C2/SC(c3ccccc3)N(c3ccc(NC(C)=O)cc3)C2=O)cc(OC)c1OC (stereo not given) | 35.5 µM (inactive) | > 100 µM (inactive) | 
CC12Oc3ccc4ccccc4c3C1c1c(ccc3ccccc13)O2 (stereo not given) |  |  | GI50 [2]: > 100 µM (inactive); GI50 [4]: > 100 µM (inactive); GI50 [5]: > 100 µM (inactive); GI50 [6]: > 100 µM (inactive); GI50 [7]: > 100 µM (inactive)
CC1CCC2C(C)C(=O)OC2C2(C)C(=O)C=CC12 (stereo not given) | > 10 µM (inactive) |  | 
CCOC(=O)/C(C(N)=O)=C(O)/C(O)=C(\Br)C(=O)c1ccccc1 | 20.4 µM (inactive) | 18.6 µM (inactive) | 
CCc1nnc(CC)n1-n1c(Cc2ccccc2)n[nH]c1=O |  | > 100 µM (inactive) | 
